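Cells were grown in 96-well plates and exposed to each compound for 48 hours at five concentrations; endpoints were interpolated linearly between bracketing concentrations, or set to the highest concentration if not reached. Here, GI50 denotes the concentration required for 50% inhibition of growth.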 Calls of active or inactive are those of the source. Rule as the data show it: active = GI50 up to about 1.1 µM and inactive = higher.
Assays:
Test in all cases: DTP human tumour cell line panel, 48 h
Malme-3M = tested on: Malme-3M
NCI-H226 = tested on: NCI-H226
KM12 = tested on: KM12
OVCAR-3 = tested on: OVCAR-3
NCI-H460 = tested on: NCI-H460
HCC 2998 = tested on: HCC 2998
HL-60 = tested on: HL-60
OVCAR-5 = tested on: OVCAR-5
OVCAR-4 = tested on: OVCAR-4
EKVX = tested on: EKVX
PC-3 = tested on: PC-3
MCF7 = tested on: MCF7
SR = tested on: SR
M14 = tested on: M14
COLO 205 = tested on: COLO 205
SK-MEL-5 = tested on: SK-MEL-5
DU-145 = tested on: DU-145
SK-MEL-2 = tested on: SK-MEL-2
SW-620 = tested on: SW-620

Compound | GI50 (Malme-3M) | GI50 (NCI-H226) | GI50 (KM12) | GI50 (OVCAR-3) | GI50 (NCI-H460) | GI50 (HCC 2998) | GI50 (HL-60) | GI50 (OVCAR-5) | GI50 (OVCAR-4) | GI50 (EKVX) | GI50 (PC-3) | GI50 (MCF7) | GI50 (SR) | GI50 (M14) | GI50 (COLO 205) | GI50 (SK-MEL-5) | GI50 (DU-145) | GI50 (SK-MEL-2) | GI50 (SW-620)
Cc1occc1C(=S)Nc1ccc(Cl)c(C(=O)OC(C)C2CC2)c1 (centres undefined) | 16.4 µM (inactive) | 15.5 µM (inactive) | 16.3 µM (inactive) | 16.6 µM (inactive) | 35.7 µM (inactive) | 20.3 µM (inactive) | 24.2 µM (inactive) | 23.4 µM (inactive) | 15.3 µM (inactive) | 19.1 µM (inactive) | 18.9 µM (inactive) | 26 µM (inactive) | 18.3 µM (inactive) | 24.9 µM (inactive) | 20.1 µM (inactive) | 15.3 µM (inactive) | 28.1 µM (inactive) | 18.3 µM (inactive) | 35.8 µM (inactive)
O=C(NCCN1CCCC1)c1cn2c(ccc3sc4ccccc4c(=O)c32)n1 | 16 µM (inactive) | 17 µM (inactive) | 16.7 µM (inactive) | 14.7 µM (inactive) | 1.01 µM (active) | 6.56 µM (inactive) | 5.61 µM (inactive) | 11.9 µM (inactive) | 12.3 µM (inactive) | 15.6 µM (inactive) | 13.8 µM (inactive) | 2.77 µM (inactive) | 1.17 µM (inactive) | 15.6 µM (inactive) | 11.7 µM (inactive) | 10.3 µM (inactive) | 13.2 µM (inactive) | 19.2 µM (inactive) | 1.51 µM (inactive)
Cc1ccc(S(=O)(=O)NC2=NS(=O)(=O)c3cc(C)c(Cl)cc3S2)cc1 | 38.8 µM (inactive) | > 100 µM (inactive) | > 100 µM (inactive) | > 100 µM (inactive) | > 100 µM (inactive) | 82.6 µM (inactive) | > 100 µM (inactive) | > 100 µM (inactive) | > 100 µM (inactive) | > 100 µM (inactive) | 45.5 µM (inactive) | 85.3 µM (inactive) | 63.4 µM (inactive) | 81.8 µM (inactive) | > 100 µM (inactive) | > 100 µM (inactive) | > 100 µM (inactive) | > 100 µM (inactive) | 71.6 µM (inactive)
O=C(Nc1ccc(Cl)c(Cl)c1)N1N=C2c3ccccc3CCC2C1c1ccc(Cl)cc1 (centres undefined) | > 100 µM (inactive) | > 100 µM (inactive) | > 100 µM (inactive) | > 100 µM (inactive) | > 100 µM (inactive) | > 100 µM (inactive) | > 100 µM (inactive) | > 100 µM (inactive) | > 100 µM (inactive) | > 100 µM (inactive) | > 100 µM (inactive) | > 100 µM (inactive) | > 100 µM (inactive) | > 100 µM (inactive) | > 100 µM (inactive) | > 100 µM (inactive) | > 100 µM (inactive) | > 100 µM (inactive) | > 100 µM (inactive)
Cn1nc2c(c1N)Cc1c(nn(C)c1N)-c1ccccc1-2 | > 100 µM (inactive) | > 100 µM (inactive) | > 100 µM (inactive) | > 100 µM (inactive) | > 100 µM (inactive) | > 100 µM (inactive) | > 100 µM (inactive) | > 100 µM (inactive) | > 100 µM (inactive) | > 100 µM (inactive) | > 100 µM (inactive) | > 100 µM (inactive) | > 100 µM (inactive) | > 100 µM (inactive) | > 100 µM (inactive) | > 100 µM (inactive) | > 100 µM (inactive) | > 100 µM (inactive) | > 100 µM (inactive)
Nc1ccc(-c2nc3cc(F)ccc3s2)cc1Br | 33 µM (inactive) | 0.0504 µM (active) | 10.4 µM (inactive) | 0.0964 µM (active) | 0.0458 µM (active) | < 0.01 µM (active) | 4.71 µM (inactive) | 0.0904 µM (active) | 23.8 µM (inactive) | 2.71 µM (inactive) | 26.6 µM (inactive) | < 0.0111 µM (active) | < 0.01 µM (active) | > 95.5 µM (inactive) | 0.377 µM (active) | 33.1 µM (inactive) | 55.7 µM (inactive) | > 89.5 µM (inactive) | > 93.8 µM (inactive)

Reference: ChEMBL document CHEMBL1201862, “PubChem BioAssay data set” (2004)
